In patent US20050197350A1, “Novel quinoline, tetrahydroquinazoline, and pyrimidine derivatives and methods of treatment related to the use thereof” (TAISHO PHARMACEUTICAL CO., LTD., priority 2003, published 2005) one finds class data, which are given here for 29 compounds.

The experiment deals with MCH receptors. The experiment can be described thus: MCH receptor activity class (method not given). The conditions noted are these: class by percent of control at 10^−7 M or IC50.

As for `Cc1cc(N(C)C)nc(N[C@H]2CC[C@@H](CNC(=O)c3ccc(Br)cc3)CC2)n1` [compound 2762], the class is reported as 1 (Class 1: The value of percent of control at 10^−7 M was less than 40% or the value of IC50 was less than 50 nM.). The same measure for `Cc1cc(N(C)C)nc(N[C@H]2CC[C@@H](CNC(=O)c3ccc(Br)c(C)c3)CC2)n1` [compound 2763]: 1 (Class 1: The value of percent of control at 10^−7 M was less than 40% or the value of IC50 was less than 50 nM.); for `Cc1cc(N(C)C)nc(N[C@H]2CC[C@@H](CNC(=O)c3ccc(F)c(Cl)c3)CC2)n1` [compound 2764]: 1 (Class 1: The value of percent of control at 10^−7 M was less than 40% or the value of IC50 was less than 50 nM.); for `Cc1cc(N(C)C)nc(N[C@H]2CC[C@@H](CNC(=O)c3ccc(C(F)(F)F)c(F)c3)CC2)n1` [compound 2765]: 2 (Class 2: The value of percent of control at 10^−7 M was from 40% to 60% or the value of IC′50 was from 50 nM to 200 nM.). Take `Cc1cc(N(C)C)nc(N[C@H]2CC[C@@H](CNC(=O)c3cc(Cl)cc(Cl)c3)CC2)n1` [compound 2766, 3,5-dichloro-N-[(cis-4-{[4-(dimethylamino)-6-methylpyrimidin-2-yl]amino}cyclohexyl)methyl]benzamide]: the class is given as 2 (Class 2: The value of percent of control at 10^−7 M was from 40% to 60% or the value of IC′50 was from 50 nM to 200 nM.). For `Cc1cc(N(C)C)nc(N[C@H]2CC[C@@H](CNC(=O)c3ccc(Cl)c(Cl)c3)CC2)n1` [compound 2767], the class is listed as 2 (Class 2: The value of percent of control at 10^−7 M was from 40% to 60% or the value of IC′50 was from 50 nM to 200 nM.).

For the compound `Cc1cc(N(C)C)nc(N[C@H]2CC[C@@H](CNC(=O)c3ccc(Cl)cc3)CC2)n1` [compound 2770, 4-chloro-N-[(cis-4-{[4-(dimethylamino)-6-methylpyrimidin-2-yl]amino}cyclohexyl)methyl]benzamide], the class is on record as 2 (Class 2: The value of percent of control at 10^−7 M was from 40% to 60% or the value of IC′50 was from 50 nM to 200 nM.). Regarding `Cc1cnc(N[C@H]2CC[C@@H](C(=O)N[C@H](C)c3ccccc3)CC2)nc1N(C)C` [compound 2771, cis-4-{[4-(dimethylamino)-5-methylpyrimidin-2-yl]amino}-N-[(1R)-1-phenylethyl]cyclohexanecarboxamide], the class is listed as 2 (Class 2: The value of percent of control at 10^−7 M was from 40% to 60% or the value of IC′50 was from 50 nM to 200 nM.). Take `Cc1ccc([C@H](C)NC(=O)[C@H]2CC[C@@H](Nc3ncc(C)c(N(C)C)n3)CC2)cc1` [compound 2772, cis-4-{[4-(dimethylamino)-5-methylpyrimidin-2-yl]amino}-N-[(1S)-1-(4-methylphenyl)ethyl]cyclohexanecarboxamide]: the class was 1 (Class 1: The value of percent of control at 10^−7 M was less than 40% or the value of IC50 was less than 50 nM.). `Cc1cnc(N[C@H]2CC[C@@H](C(=O)N[C@H](C)c3ccc(F)cc3)CC2)nc1N(C)C` [compound 2773, cis-4-{[4-(dimethylamino)-5-methylpyrimidin-2-yl]amino}-N-[(1R)-1-(4-fluorophenyl)ethyl]cyclohexanecarboxamide]: the class was 1 (Class 1: The value of percent of control at 10^−7 M was less than 40% or the value of IC50 was less than 50 nM.). As to `Cc1cnc(N[C@H]2CC[C@@H](C(=O)N[C@@H](C)c3ccc(F)cc3)CC2)nc1N(C)C` [compound 2774, cis-4-{[4-(dimethylamino)-5-methylpyrimidin-2-yl]amino}-N-[(1S)-1-(4-fluorophenyl)ethyl]cyclohexanecarboxamide], the class is reported as 2 (Class 2: The value of percent of control at 10^−7 M was from 40% to 60% or the value of IC′50 was from 50 nM to 200 nM.).

Take `COc1cccc([C@@H](C)NC(=O)[C@H]2CC[C@@H](Nc3ncc(C)c(N(C)C)n3)CC2)c1` [compound 2775, cis-4-{[4-(dimethylamino)-5-methylpyrimidin-2-yl]amino}-N-[(1R)-1-(3-methoxyphenyl)ethyl]cyclohexanecarboxamide]: the class is 1 (Class 1: The value of percent of control at 10^−7 M was less than 40% or the value of IC50 was less than 50 nM.).

For the compound `COc1cccc([C@H](C)NC(=O)[C@H]2CC[C@@H](Nc3ncc(C)c(N(C)C)n3)CC2)c1` [compound 2776, cis-4-{[4-(dimethylamino)-5-methylpyrimidin-2-yl]amino}-N-[(1S)-1-(3-methoxyphenyl)ethyl]cyclohexanecarboxamide], the class is on record as 1 (Class 1: The value of percent of control at 10^−7 M was less than 40% or the value of IC50 was less than 50 nM.).

Turning to `COc1ccc([C@H](C)NC(=O)[C@H]2CC[C@@H](Nc3ncc(C)c(N(C)C)n3)CC2)cc1` [compound 2777, cis-4-{[4-(dimethylamino)-5-methylpyrimidin-2-yl]amino}-N-[(1S)-1-(4-methoxyphenyl)ethyl]cyclohexanecarboxamide], the class is 1 (Class 1: The value of percent of control at 10^−7 M was less than 40% or the value of IC50 was less than 50 nM.). In the case of `Cc1cnc(N[C@H]2CC[C@@H](C(=O)N[C@H](C)c3ccc(Cl)cc3)CC2)nc1N(C)C` [compound 2778, cis-N-[(1R)-1-(4-chlorophenyl)ethyl]-4-{[4-(dimethylamino)-5-methylpyrimidin-2-yl]amino}cyclohexanecarboxamide], the class is given as 1 (Class 1: The value of percent of control at 10^−7 M was less than 40% or the value of IC50 was less than 50 nM.). With `Cc1cnc(N[C@H]2CC[C@@H](C(=O)N[C@H](C)c3ccc([N+](=O)[O-])cc3)CC2)nc1N(C)C` [compound 2780, cis-4-{[4-(dimethylamino)-5-methylpyrimidin-2-yl]amino}-N-[(1R)-1-(4-nitrophenyl)ethyl]cyclohexanecarboxamide], the class is recorded as 1 (Class 1: The value of percent of control at 10^−7 M was less than 40% or the value of IC50 was less than 50 nM.). In the case of `Cc1cnc(N[C@H]2CC[C@@H](C(=O)N[C@@H](C)c3ccc([N+](=O)[O-])cc3)CC2)nc1N(C)C` [compound 2781, cis-4-{[4-(dimethylamino)-5-methylpyrimidin-2-yl]amino}-N-[(1S)-1-(4-nitrophenyl)ethyl]cyclohexanecarboxamide] it was 2 (Class 2: The value of percent of control at 10^−7 M was from 40% to 60% or the value of IC′50 was from 50 nM to 200 nM.); in that of `Cc1cnc(N[C@H]2CC[C@@H](C(=O)N[C@H](C)c3cccc4ccccc34)CC2)nc1N(C)C` [compound 2782, cis-4-{[4-(dimethylamino)-5-methylpyrimidin-2-yl]amino}-N-[(1R)-1-(1-naphthyl)ethyl]cyclohexanecarboxamide], 1 (Class 1: The value of percent of control at 10^−7 M was less than 40% or the value of IC50 was less than 50 nM.); in that of `Cc1cnc(N[C@H]2CC[C@@H](C(=O)Nc3cccc(F)c3)CC2)nc1N(C)C` [compound 2784, cis-4-{[4-(dimethylamino)-5-methylpyrimidin-2-yl]amino}-N-(3-fluorophenyl)cyclohexanecarboxamide], 2 (Class 2: The value of percent of control at 10^−7 M was from 40% to 60% or the value of IC′50 was from 50 nM to 200 nM.). In the case of `CCCc1ccc(NC(=O)[C@H]2CC[C@@H](Nc3ncc(C)c(N(C)C)n3)CC2)cc1` [compound 2785] it was 2 (Class 2: The value of percent of control at 10^−7 M was from 40% to 60% or the value of IC′50 was from 50 nM to 200 nM.); in that of `COc1ccc(NC(=O)[C@H]2CC[C@@H](Nc3ncc(C)c(N(C)C)n3)CC2)cc1` [compound 2786], 3 (Class 3 The value of percent of control at 10^−7 M was more than 60% or the value of IC50 was more than 200 nM.). In the case of `COc1cccc(NC(=O)[C@H]2CC[C@@H](Nc3ncc(C)c(N(C)C)n3)CC2)c1` [compound 2787, cis-4-{[4-(dimethylamino)-5-methylpyrimidin-2-yl]amino}-N-(3-methoxyphenyl)cyclohexanecarboxamide], the class was 1 (Class 1: The value of percent of control at 10^−7 M was less than 40% or the value of IC50 was less than 50 nM.). `Cc1cnc(N[C@H]2CC[C@@H](C(=O)Nc3cccc(Cl)c3)CC2)nc1N(C)C` [compound 2788, cis-N-(3-chlorophenyl)-4-{[4-(dimethylamino)-5-methylpyrimidin-2-yl]amino}cyclohexanecarboxamide]: the class is 1 (Class 1: The value of percent of control at 10^−7 M was less than 40% or the value of IC50 was less than 50 nM.). For `Cc1cnc(N[C@H]2CC[C@@H](C(=O)Nc3ccccc3Br)CC2)nc1N(C)C` [compound 2789], the class is 3 (Class 3 The value of percent of control at 10^−7 M was more than 60% or the value of IC50 was more than 200 nM.). In the case of `Cc1cnc(N[C@H]2CC[C@@H](C(=O)N[C@H]3C[C@@H]3c3ccccc3)CC2)nc1N(C)C` [compound 2790, cis-4-{[4-(dimethylamino)-5-methylpyrimidin-2-yl]amino}-N-[(1S,2R)-2-phenylcyclopropyl]cyclohexanecarboxamide] it was 1 (Class 1: The value of percent of control at 10^−7 M was less than 40% or the value of IC50 was less than 50 nM.); in that of `Cc1cnc(N[C@H]2CC[C@@H](C(=O)Nc3ccc(C(F)(F)F)cc3)CC2)nc1N(C)C` [compound 2791, cis-4-{[4-(dimethylamino)-5-methylpyrimidin-2-yl]amino}-N-[4-(trifluoromethyl)phenyl]cyclohexanecarboxamide], 1 (Class 1: The value of percent of control at 10^−7 M was less than 40% or the value of IC50 was less than 50 nM.). `CSc1ccccc1NC(=O)[C@H]1CC[C@@H](Nc2ncc(C)c(N(C)C)n2)CC1` [compound 2792]: the class is on record as 2 (Class 2: The value of percent of control at 10^−7 M was from 40% to 60% or the value of IC′50 was from 50 nM to 200 nM.). In the case of `Cc1cnc(N[C@H]2CC[C@@H](C(=O)N3CCc4ccccc4C3)CC2)nc1N(C)C` [compound 2793] it was 3 (Class 3 The value of percent of control at 10^−7 M was more than 60% or the value of IC50 was more than 200 nM.); in that of `Cc1ccc([C@H](C)NC(=O)[C@H]2CC[C@@H](Nc3nc(C)cc(N(C)C)n3)CC2)cc1` [compound 2795], 1 (Class 1: The value of percent of control at 10^−7 M was less than 40% or the value of IC50 was less than 50 nM.).
